Our source for the IC50 values is patent publication US5068244A, “Benzocyclohexanes and analgesic compositions thereof” (Roussel Uclaf, priority 1988, dated 1991).

In this test the target is T1, opiate receptor K (Cavia porcellus, UniProt P41144).
T1 construct: Membranous sediment preserved at -30° C; and prepared from guinea pig cerbelli were used; from tissue; host or cells: guinea pig cerebellum membranes
T1 sequence (P41144 whole entry): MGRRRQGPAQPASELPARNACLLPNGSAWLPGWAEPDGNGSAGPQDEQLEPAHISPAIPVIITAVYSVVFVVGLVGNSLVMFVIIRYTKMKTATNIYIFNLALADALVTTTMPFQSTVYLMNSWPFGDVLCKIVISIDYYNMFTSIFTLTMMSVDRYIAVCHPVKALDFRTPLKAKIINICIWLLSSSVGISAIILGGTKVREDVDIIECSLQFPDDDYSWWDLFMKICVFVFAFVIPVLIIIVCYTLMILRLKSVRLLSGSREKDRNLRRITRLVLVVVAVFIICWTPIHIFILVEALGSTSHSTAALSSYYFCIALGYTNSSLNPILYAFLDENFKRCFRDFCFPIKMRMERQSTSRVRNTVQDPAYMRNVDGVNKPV
The test can be described thus: Binding of the opiate receptor K in vitro (displacement of 3H ethylketocyclazocine). To be noted: guinea pig cerebellum membranes, 3H ethylketocyclazocine 1 nM, Tris pH 7.7, 25° C., 40 minutes; read-out: CI50 (the source's name). As for the experimental part: Membranous sediment preserved at -30° C. (possibly for 30 days) and prepared from guinea pig cerbelli were used. The sediments were put in suspension in the buffer Tris pH 7.7. Fractions of 2 ml were distributed in hemolysis tubes and ^3 H ethylketocyclazocine 1 nM and the product to be studied were added. The following were determined: the maximum quantity of fixed radioactivity in the presence of ^3 H ethylketocyclazocine alone, the quantity of radioactivity bonded in a non-specific manner in the presence of the tritiated ligand and of an excess (10^-5 M) of the reference product known under the name of U-50488 H and the displacement of specific bonding produced by a dose of 5×10^-5 M of the product to be tested.
These tests were carried out in triplicate and aliquotes of 2 ml were incubated at 25° C. for 40 minutes. After returning to 0° C. for 5 minutes at the end of the incubation, they were filtered with Whatman GF/C filters, rinsed in Tris buffer pH 7.7 and the radioactivity was counted in the presence of scintillating Triton. When the product to be tested displaced the specifically fixed radioactivity by more than 50%, the 50% inhibiting concentration (CI50) was determined by a 7 dose scale. The results of the 50% inhibiting concentration were then expressed in nM. The CI50 was therefore the concentration of the product studied, expressed in nM, necessary to displace 50% of the specifically fixed radioactivity on the receptor studied (LAHTI et al, 1982, Life Sci., Vol. 31, 2257) The results are as follows: […]
(In a radioligand displacement assay an active substance lowers the binding of a labelled ligand.)
For `CN(C(=O)Cc1ccc([N+](=O)[O-])cc1)[C@H]1c2ccccc2CC[C@@H]1N1CCCC1` (relative stereo) [Example 2, Trans (±) N-methyl-4-nitro-N-[2-(1-pyrrolidinyl)-1,2,3,4-tetrahydro-1-naphthyl]-benzene acetamide], the IC50 was determined as 12 nM. Take `CN(C(=O)Cc1cccc2ccccc12)[C@H]1c2ccccc2CC[C@@H]1N1CCCC1` (relative stereo) [Example 3, Trans (±) N-methyl-N-[2-(1-pyrrolidinyl)-1,2,3,4-tetrahydro-1-naphthyl]-1-naphthalene acetamide]: the IC50 was 11 nM. On to `CN(C(=O)Cc1cccc2sccc12)[C@H]1c2ccccc2CC[C@@H]1N1CCCC1` (relative stereo) [Example 20, Trans (±) N-methyl-N-[2-(1-pyrrolidinyl)-1,2,3,4-tetrahydro-1-naphthyl]-4-benzo-[b]-thiophene acetamide], for which the IC50 was 3.3 nM.
